From patent publication US12275718B2, “Small molecule inhibitors of galectin-3” (BRISTOL-MYERS SQUIBB COMPANY, priority 2018, dated 2025)
pIC50: −log10 of the molar value.

What follows are compounds tested against His-tagged recombinant human Gal-3 (hGal-3) (Homo sapiens, UniProt P17931) (assay: Gal-3 HTRF assay (His-tagged hGal-3 / B-ASF)). Details: hGal-3 15 nM, B-ASF 15 nM, room temperature, three replicates.
Assay type: binding
Experimental: • ASSAY BUFFER Composition: 25 mM HEPES, 100 mM NaCl, 0.005% Tween 20, 0.05% BSA prepared in sterile water (all reagents from Sigma) Controls: • Positive Control: 100% DMSO (1 μl)+His-tagged hGal-3 (20 μL)+B-ASF (20 μl)+Anti-His Terbium Antibody (5 μl)+Strep d2 Antibody (5 μl). • Negative Control: […] (1 μl)+His-tagged hGal-3 (20 μL)+Anti His Terbium Antibody (5 μl)+Strep d2 Aantibody (5 μl). Stocks Preparation:
PROTOCOL: The Gal-3 assays were performed in 384 white Opti plates in three replicates at room temperature with gentle shaking at 250-300 rpm From the original stocks, […] working stock concentrations of His-tagged recombinant human Gal-3 (hGal-3) and that of B-ASF were prepared. From the working stock, 20 μl of hGal-3 (15 nM) and 20 μl B-ASF (15 nM) were added to the plates. In Negative Control, only hGal-3 was added. A concentration range of 50× working stocks were prepared for the compounds in […]. Aliquots of 1 uL of the compounds were added to the wells and pre-incubated with 20 μl hGal-3 per well for 30 minutes Then 20 μl B-ASF were added and incubated for another 1 hour. To detect the signal, 5 μL (final conc. of 1.0 nM) terbium labelled Anti-His antibody was added and incubated for 30 min followed by adding 5 μL (final conc. of 20 nM) Streptavidin d2 and incubation for another 1 hour. The assay signal was detected using HTRF screen protocol (Excitation wavelength=340 nm, emission wavelength=615 nm/665 nm) on Envision 2104 Multilabel Reader. Data analysed using Toolset and Curve Master. Results are reported in the experimental section (IC50 in μM).

His-tagged recombinant human Gal-3 (hGal-3), sequence (P17931 whole entry): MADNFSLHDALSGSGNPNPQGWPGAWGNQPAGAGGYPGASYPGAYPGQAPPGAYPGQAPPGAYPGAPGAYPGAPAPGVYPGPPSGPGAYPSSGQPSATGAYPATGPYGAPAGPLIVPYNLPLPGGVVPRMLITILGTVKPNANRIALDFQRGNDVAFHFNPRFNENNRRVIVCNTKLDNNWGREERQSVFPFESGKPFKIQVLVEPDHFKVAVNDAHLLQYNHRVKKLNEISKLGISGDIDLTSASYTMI

SMILES	pIC50
Cc1nc([C@H]2O[C@@H](CO)[C@@H](O)[C@@H](n3cc(-c4cc(F)c(Cl)c(F)c4)nn3)[C@@H]2OCC(=O)NCCCNC(=O)CO[C@@H]2[C@@H](n3cc(-c4cc(F)c(Cl)c(F)c4)nn3)[C@@H](O)[C@@H](CO)O[C@H]2c2nc(C)nn2-c2cc(Cl)ccc2C(F)(F)F)n(-c2cc(Cl)ccc2C(F)(F)F)n1 [Example 6]	9.00
Cc1nc([C@H]2O[C@@H](CO)[C@@H](O)[C@@H](n3cc(-c4ccc(Cl)c(F)c4)nn3)[C@@H]2OCCCCCCCCCCO[C@@H]2[C@@H](n3cc(-c4ccc(Cl)c(F)c4)nn3)[C@@H](O)[C@@H](CO)O[C@H]2c2nc(C)nn2-c2cc(Cl)ccc2Cl)n(-c2cc(Cl)ccc2Cl)n1 [Example 16, (2R,3R,4S,5R,6S)-4-(4-(4-chloro-3-fluorophenyl)-1H-1,2,3-triazol-1-yl)-5-((10-(((2R,3S,4R,5S,6S)-4-(4-(4-chloro-3-fluorophenyl)-1H-1,2,3-triazol-1-yl)-2-(1-(2,5-dichlorophenyl)-3-methyl-1H-1,2,4-triazol-5-yl)-5-hydroxy-6-(hydroxymethyl)tetrahydro-2H-pyran-3-yl)oxy)decyl)oxy)-6-(1-(2,5-dichlorophenyl)-3-methyl-1H-1,2,4-triazol-5-yl)-2-(hydroxymethyl)tetrahydro-2H-pyran-3-ol]	5.00
Cc1nc([C@H]2O[C@@H](CO)[C@@H](O)[C@@H](n3cc(-c4cc(F)c(Cl)c(F)c4)nn3)[C@@H]2OCCCCCCCCO[C@@H]2[C@@H](n3cc(-c4cc(F)c(Cl)c(F)c4)nn3)[C@@H](O)[C@@H](CO)O[C@H]2c2nc(C)nn2-c2cc(Cl)ccc2Cl)n(-c2cc(Cl)ccc2Cl)n1 [Example 17, (2R,3R,4S,5R,6S)-4-(4-(4-chloro-3,5-difluorophenyl)-1H-1,2,3-triazol-1-yl)-5-((8-(((2R,3S,4R,5S,6S)-4-(4-(4-chloro-3,5-difluorophenyl)-1H-1,2,3-triazol-1-yl)-2-(1-(2,5-dichlorophenyl)-3-methyl-1H-1,2,4-triazol-5-yl)-5-hydroxy-6-(hydroxymethyl)tetrahydro-2H-pyran-3-yl)oxy)octyl)oxy)-6-(1-(2,5-dichlorophenyl)-3-methyl-1H-1,2,4-triazol-5-yl)-2-(hydroxymethyl)tetrahydro-2H-pyran-3-ol]	5.70
Cc1nc(C2OC(CO)C(O)C(n3cc(-c4cc(F)c(F)c(F)c4)nn3)C2OC(=O)NCCCCNC(=O)OC2C(c3nc(C)nn3-c3cc(Cl)ccc3Cl)OC(CO)C(O)C2n2cc(-c3cc(F)c(F)c(F)c3)nn2)n(-c2cc(Cl)ccc2Cl)n1 [Example 18, (2R,3S,4R,5S,6S)-2-(1-(2,5-dichlorophenyl)-3-methyl-11H-1,2,4-triazol-5-yl)-5-hydroxy-6-(hydroxymethyl)-4-(4-(3,4,5-trifluorophenyl)-1H-1,2,3-triazol-1-yl)tetrahydro-2H-pyran-3-yl ((2S,3R,4S,5R,6R)-2-(1-(2,5-dichlorophenyl)-3-methyl-1H-1,2,4-triazol-5-yl)-5-hydroxy-6-(hydroxymethyl)-4-(4-(3,4,5-trifluorophenyl)-1H-1,2,3-triazol-1-yl)tetrahydro-2H-pyran-3-yl) butane-1,4-diyldicarbamate]	7.72
Cc1nc([C@H]2O[C@@H](CO)[C@@H](O)[C@@H](n3cc(-c4cc(F)c(Cl)c(F)c4)nn3)[C@@H]2OCC(=O)N(C)CCN(C)C(=O)CO[C@@H]2[C@@H](n3cc(-c4cc(F)c(Cl)c(F)c4)nn3)[C@@H](O)[C@@H](CO)O[C@H]2c2nc(C)nn2-c2cc(Cl)ccc2Cl)n(-c2cc(Cl)ccc2Cl)n1 [Example 21]	8.70
Cc1nc([C@H]2O[C@@H](CO)[C@@H](O)[C@@H](n3cc(-c4cc(F)c(Cl)c(F)c4)nn3)[C@@H]2OCC(=O)N2CCN(C(=O)CO[C@@H]3[C@@H](n4cc(-c5cc(F)c(Cl)c(F)c5)nn4)[C@@H](O)[C@@H](CO)O[C@H]3c3nc(C)nn3-c3cc(Cl)ccc3Cl)CC2)n(-c2cc(Cl)ccc2Cl)n1 [Example 22]	8.40
Cc1nc([C@H]2O[C@@H](CO)[C@@H](O)[C@@H](n3cc(-c4cc(F)c(Cl)c(F)c4)nn3)[C@@H]2OCC(=O)N2CCCN(C(=O)CO[C@@H]3[C@@H](n4cc(-c5cc(F)c(Cl)c(F)c5)nn4)[C@@H](O)[C@@H](CO)O[C@H]3c3nc(C)nn3-c3cc(Cl)ccc3Cl)CC2)n(-c2cc(Cl)ccc2Cl)n1 [Example 23]	8.40

Now from value to compound:

pIC50	SMILES
9.00	Cc1nc(C2OC(CO)C(O)C(n3cc(-c4cc(F)c(F)c(F)c4)nn3)C2OCC(=O)NCCCCCNC(=O)COC2C(c3nc(C)nn3-c3cc(Cl)ccc3Cl)OC(CO)C(O)C2n2cc(-c3cc(F)c(F)c(F)c3)nn2)n(-c2cc(Cl)ccc2Cl)n1 (stereo not drawn) [Example 2]
8.00	Cc1nc([C@H]2O[C@@H](CO)[C@@H](O)[C@@H](n3cc(-c4ccc(Cl)c(F)c4)nn3)[C@@H]2OCC(=O)NCCCCCNC(=O)CO[C@@H]2[C@@H](n3cc(-c4ccc(Cl)c(F)c4)nn3)[C@@H](O)[C@@H](CO)O[C@H]2c2nc(C)nn2-c2cc(Cl)ccc2Cl)n(-c2cc(Cl)ccc2Cl)n1 [Example 5]
9.00	Cc1nc([C@H]2O[C@@H](CO)[C@@H](O)[C@@H](n3cc(-c4cc(F)c(Cl)c(F)c4)nn3)[C@@H]2OCC(=O)NCCCCNC(=O)CO[C@@H]2[C@@H](n3cc(-c4cc(F)c(Cl)c(F)c4)nn3)[C@@H](O)[C@@H](CO)O[C@H]2c2nc(C)nn2-c2cc(Cl)ccc2C(F)(F)F)n(-c2cc(Cl)ccc2C(F)(F)F)n1 [Example 7]
9.00	Cc1nc([C@H]2O[C@@H](CO)[C@@H](O)[C@@H](n3cc(-c4cc(F)c(Cl)c(F)c4)nn3)[C@@H]2OCC(=O)NCCCCCNC(=O)CO[C@@H]2[C@@H](n3cc(-c4cc(F)c(Cl)c(F)c4)nn3)[C@@H](O)[C@@H](CO)O[C@H]2c2nc(C)nn2-c2cc(Cl)ccc2C(F)(F)F)n(-c2cc(Cl)ccc2C(F)(F)F)n1 [Example 8]
8.22	Cc1nc([C@H]2O[C@@H](CO)[C@@H](O)[C@@H](n3cc(-c4cc(F)c(Cl)c(F)c4)nn3)[C@@H]2OCC(=O)NCCCCCCNC(=O)CO[C@@H]2[C@@H](n3cc(-c4cc(F)c(Cl)c(F)c4)nn3)[C@@H](O)[C@@H](CO)O[C@H]2c2nc(C)nn2-c2cc(Cl)ccc2Cl)n(-c2cc(Cl)ccc2Cl)n1 [Example 9]
8.00	Cc1nc([C@H]2O[C@@H](CO)[C@@H](O)[C@@H](n3cc(-c4cc(F)c(Cl)c(F)c4)nn3)[C@@H]2OCC(=O)NCCCCCCCNC(=O)CO[C@@H]2[C@@H](n3cc(-c4cc(F)c(Cl)c(F)c4)nn3)[C@@H](O)[C@@H](CO)O[C@H]2c2nc(C)nn2-c2cc(Cl)ccc2Cl)n(-c2cc(Cl)ccc2Cl)n1 [Example 10]
9.00	Cc1nc([C@H]2O[C@@H](CO)[C@@H](O)[C@@H](n3cc(-c4cc(F)c(Cl)c(F)c4)nn3)[C@@H]2OCC(=O)NCCCCCNC(=O)CO[C@@H]2[C@@H](n3cc(-c4cc(F)c(Cl)c(F)c4)nn3)[C@@H](O)[C@@H](CO)O[C@H]2c2nc(C)nn2-c2cc(Cl)ccc2Cl)n(-c2cc(Cl)ccc2Cl)n1 [Example 11]
9.00	Cc1nc([C@H]2O[C@@H](CO)[C@@H](O)[C@@H](n3cc(-c4cc(F)c(Cl)c(F)c4)nn3)[C@@H]2OCC(=O)NCCCCNC(=O)CO[C@@H]2[C@@H](n3cc(-c4cc(F)c(Cl)c(F)c4)nn3)[C@@H](O)[C@@H](CO)O[C@H]2c2nc(C)nn2-c2cc(Cl)ccc2Cl)n(-c2cc(Cl)ccc2Cl)n1 [Example 12]
9.00	Cc1nc([C@H]2O[C@@H](CO)[C@@H](O)[C@@H](n3cc(-c4cc(F)c(Cl)c(F)c4)nn3)[C@@H]2OCC(=O)NCCNC(=O)CO[C@@H]2[C@@H](n3cc(-c4cc(F)c(Cl)c(F)c4)nn3)[C@@H](O)[C@@H](CO)O[C@H]2c2nc(C)nn2-c2cc(Cl)ccc2Cl)n(-c2cc(Cl)ccc2Cl)n1 [Example 13]
8.30	Cc1nc([C@H]2O[C@@H](CO)[C@@H](O)[C@@H](n3cc(-c4cc(F)c(Cl)c(F)c4)nn3)[C@@H]2OCC(=O)N(C)CCCCN(C)C(=O)CO[C@@H]2[C@@H](n3cc(-c4cc(F)c(Cl)c(F)c4)nn3)[C@@H](O)[C@@H](CO)O[C@H]2c2nc(C)nn2-c2cc(Cl)ccc2Cl)n(-c2cc(Cl)ccc2Cl)n1 [Example 15]
6.96	Cc1nc([C@H]2O[C@@H](CO)[C@@H](O)[C@@H](n3cc(-c4cc(F)c(Cl)c(F)c4)nn3)[C@@H]2OC(=O)NCCCNC(=O)O[C@@H]2[C@@H](n3cc(-c4cc(F)c(Cl)c(F)c4)nn3)[C@@H](O)[C@@H](CO)O[C@H]2c2nc(C)nn2-c2cc(Cl)ccc2Cl)n(-c2cc(Cl)ccc2Cl)n1 [Example 19, (2R,3S,4R,5S,6S)-4-(4-(4-chloro-3,5-difluorophenyl)-1H-1,2,3-triazol-1-yl)-2-(1-(2,5-dichlorophenyl)-3-methyl-1H-1,2,4-triazol-5-yl)-5-hydroxy-6-(hydroxymethyl)tetrahydro-2H-pyran-3-yl ((2S,3R,4S,5R,6R)-4-(4-(4-chloro-3,5-difluorophenyl)-1H-1,2,3-triazol-1-yl)-2-(1-(2,5-dichlorophenyl)-3-methyl-1H-1,2,4-triazol-5-yl)-5-hydroxy-6-(hydroxymethyl)tetrahydro-2H-pyran-3-yl) propane-1,3-diyldicarbamate]
